Source: BindingDB's records for doi:10.1021/jm00394a022 (Pennsylvania State University, 1987)

Experiments:
[1] = target: Glutamine synthetase (Pisum sativum); assay: Compound was evaluated for binding affinity by the inhibition of Glutamine synthetase (Pea seed) activity using biosynthetic assay [noncompetitive inhibition]
[2] = target: Glutamine synthetase (Ovis aries); assay: Compound was evaluated for binding affinity by the inhibition of Glutamine synthetase (Ovine brain) activity using biosynthetic assay [competitive inhibition]
[3] = target: Glutamine synthetase (Escherichia coli) (UniProt P0A9C5); assay: Compound was evaluated for binding affinity by the inhibition of Glutamine synthetase (Escherichia coli) activity using biosynthetic assay [mixed Non-competitive inhibition]
Sequence of Glutamine synthetase (Escherichia coli) (P0A9C5 whole entry, looked up): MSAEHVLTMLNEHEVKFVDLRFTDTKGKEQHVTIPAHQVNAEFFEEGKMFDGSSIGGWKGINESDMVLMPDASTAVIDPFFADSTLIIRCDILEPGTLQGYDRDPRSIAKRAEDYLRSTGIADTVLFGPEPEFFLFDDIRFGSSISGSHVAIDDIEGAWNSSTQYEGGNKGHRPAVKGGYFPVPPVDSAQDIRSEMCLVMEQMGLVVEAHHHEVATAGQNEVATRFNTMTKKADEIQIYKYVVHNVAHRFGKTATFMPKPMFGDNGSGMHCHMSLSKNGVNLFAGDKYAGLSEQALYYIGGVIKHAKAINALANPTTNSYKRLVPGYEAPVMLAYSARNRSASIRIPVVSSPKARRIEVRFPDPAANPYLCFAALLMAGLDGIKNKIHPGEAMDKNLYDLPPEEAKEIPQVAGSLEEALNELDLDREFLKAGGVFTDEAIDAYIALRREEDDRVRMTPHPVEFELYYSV

## NC(CCP(=O)(O)CP(=O)(O)O)C(=O)O (stereo not drawn) [2-ammonio-4-[hydroxy(phosphonomethyl)phosphoryl]butanoate]
[1]
  Ki: 250 µM
[2]
  Ki: 750 µM
[3]
  Ki: 75 µM
